In patent US20250034601A1, “HETERODIMERIC BENZALDEHYDE SYNTHASE, METHODS OF PRODUCING, AND USES THEREOF” (Purdue Research Foundation, priority 2021, published 2025):

Experiments:
[1] = system: pds-bsα-bsβ VIGS petunia flowers; assay: Emission of volatiles from pds-bsα-bsβ VIGS petunia flowers; format: in vivo, Petunia hybrida; conditions: 2-day-old VIGS flowers, volatiles collected 20:00 to 21:00, n=6
Protocol: Petunia hybrida cv. Mitchell diploid (W115, Ball Seed Co., Oxford, Canada) plants were grown under standard greenhouse condition with a light period from 6:00 to 21:00 hour. To link the simultaneous downregulation of PhBSα and PhBSβ6 genes via virus induced gene silencing (VIGS) to the silencing of a marker gene, a previously generated pTRV2-PDS construct containing a 300 bp fragment of Nicotiana benthamiana Phytoene Desaturase (PDS) (CDS nucleotides 580˜879; SEQ ID NO: 11) was used (deposited with the National Center for Biotechnology Information (NCBI) GenBank and having the accession number DQ469932.1 (accepted Dec. 4, 2007)). See Spitzer et al., Reverse genetics of floral scent: Application of tobacco rattle virus-based gene silencing in petunia, Plant Physiology 145: 1241-1250 (2007). The N. benthamiana PDS fragment shared 94.3% sequence identity with P. axillaris PDS gene.
Next, a 301 bp fragment of PhBSα (CDS nucleotides 3˜303 of SEQ ID NO: 3) and a 301 bp fragment of PhBSβ6 (CDS nucleotides 3˜303 of SEQ ID NO: 4) were tandemly cloned downstream of the PDS fragment in a pTRV2-PDS plasmid using ClonExpress II One Step Cloning Kit (Vazyme Biotech Co., Piscataway, NJ), yielding the final construct pTRV2-PDS-PhBSαp.
All binary vectors, including pTRV1, deposited with the NCBI GenBank and having accession number AF406990 (accepted Jun. 11, 2002), pTRV2-PDS and pTRV2-PDS-PhBSαp, were transformed into Agrobacterium tumefaciens strain GV3101. Single colonies for each construct were cultured at 28° C. in Luria-Bertani (LB) medium containing 50 mg/L rifampicin, 50 mg/L gentamycin, and 50 mg/L kanamycin to an optical density at a wavelength of 600 nm (OD600) of 2.4.
Cells were pelleted, washed with infiltration buffer (50 mM MES, pH 5.7, 2 mM Na3PO4, 0.5% glucose and 200 μM acetosyringone), and incubated in the same buffer for 2 hours at room temperature. Yoo et al., An alternative pathway contributes to phenylalanine biosynthesis in plants via a cytosolic tyrosine:phenylpyruvate aminotransferase, Nature Communications 4: 2833 (2013). […]
Petunia flower volatiles were collected by a closed-loop stripping method and analyzed by gas chromatography mass spectrometry (GC-MS) as described in Qian et al., Completion of the cytosolic post-chorismate phenylalanine biosynthetic pathway in plants, Nature Communications 10: 15 (2019), with minor modifications. […] The extracts were pooled together and concentrated to about 200 μL under a mild stream of nitrogen gas, and samples were analyzed on an Agilent 7890B-5977B gas chromatography mass spectrometry (GC-MS) system (Agilent Technologies, Inc., Santa Clara, CA) using an analytical method translated from an established method with the Agilent 6890N-5975B GC-MS system as previously described. […]

[2] = system: benzaldehyde synthase (BS) activity in petunia flower crude protein extracts; assay: BS activity in petunia flower crude protein extracts with different substrates and cofactors (GC-MS); format: biochemical, Petunia hybrida; conditions: substance supplied as cofactor with benzoyl-CoA or in place of benzoyl-CoA; 30 minutes at 28° C.
Protocol: The crude protein extracts were obtained by extraction of petunia petal tissue with buffer A (3:1 [v/w] buffer/tissue). After centrifugation of slurry at 15,000 g for 20 minutes, the supernatant was desalted with Econo-Pac 10DG Columns (Bio-Rad, Hercules, CA) according to the manufacturer's protocol and 20 μL of desalted protein was used in the activity assays. The reaction was performed for 30 minutes at 28° C. and the product was extracted with 200 μL DCM containing 1 μg naphthalene (internal standard). After centrifugation at 15,000 g for 20 minutes, 2 μL of the bottom DCM phase was injected in GC-MS, with results shown in FIG. 3A. The compounds labeled in FIG. 3A with numbers are (1) benzaldehyde, (2) benzylalcohol, (3) internal standard (naphthalene), and (4) benzylbenzoate and the different assay mixtures described above are identified with their above-associated letters.

[3] = system: Petunia hybrida benzaldehyde synthase (PhBS), recombinant heterodimer PhBSα (SEQ ID NO: 1) / PhBSβ (SEQ ID NO: 2), wild type, MBP-tagged; assay: Kinetic parameters of recombinant PhBS (BS activity assay, HPLC; benzoyl-CoA + NADPH to benzaldehyde); format: biochemical; conditions: measured at 4 mM NADPH
Protocol: (§1) The reaction was initiated by adding a protein and incubated at 28° C. for 30 minutes, and the reactions were then terminated by adding 100 μL of 100% ice-cold methanol (MeOH). The BS enzyme assays were performed at an appropriate enzyme concentration so that reaction velocity was proportional to enzyme concentration and linear during the incubation time period. Km and Vmax were determined by non-linear fit to the Michaelis-Menten equation using Graphpad Prism, v8.2.0.
(§2) Triplicate assays were performed for all data points.
(§3) After centrifugation at 15,000 g for 20 minutes, 5 μL of the supernatant were subjected to high-performance liquid chromatography (HPLC) analysis using an Agilent 1260 Infinity II system (Agilent Technologies, Inc., Santa Clara, CA) equipped with an InfinityLab Poroshell 120 EC-C18 column (3.0×150 mm, 2.7 μm) maintained at 35° C. Products were separated with a 15-minute linear gradient of 10% aqueous acetonitrile solution to 100% acetonitrile and monitored at 248 nm using a diode array detector (DAD). Benzaldehyde was identified by comparing the retention time and absorption spectrum with authentic standard.
(§4) Quantitation was achieved by using standard curve generated from authentic standard and product verification was performed by GC-MS. Namely, crude protein extracts were obtained by extraction of petunia petal tissue with buffer A (3:1 [v/w] buffer/tissue). […]

[4] = target: T1, Solanum lycopersicum (tomato) benzaldehyde synthase (SlBS), recombinant heterodimer SlBSα (SEQ ID NO: 7) / SlBSβ (SEQ ID NO: 10), wild type, MBP-tagged (Solanum lycopersicum, UniProt A0A3Q7HAN1+A0A3Q7ILR9); assay: Kinetic parameters of recombinant SlBS (BS activity assay, HPLC; benzoyl-CoA + NADPH to benzaldehyde); format: biochemical; conditions: measured at 4 mM NADPH; pH 6.5, 28° C.
T1 sequence (A0A3Q7ILR9 with tags, fused parts or gaps): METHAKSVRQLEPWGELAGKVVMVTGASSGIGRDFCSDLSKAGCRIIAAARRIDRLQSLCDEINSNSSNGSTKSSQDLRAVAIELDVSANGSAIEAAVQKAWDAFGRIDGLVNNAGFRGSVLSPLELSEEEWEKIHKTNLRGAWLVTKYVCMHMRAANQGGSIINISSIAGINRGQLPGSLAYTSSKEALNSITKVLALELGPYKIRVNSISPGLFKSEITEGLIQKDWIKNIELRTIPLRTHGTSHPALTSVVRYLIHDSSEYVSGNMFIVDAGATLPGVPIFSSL
T1 sequence (A0A3Q7HAN1 1-266): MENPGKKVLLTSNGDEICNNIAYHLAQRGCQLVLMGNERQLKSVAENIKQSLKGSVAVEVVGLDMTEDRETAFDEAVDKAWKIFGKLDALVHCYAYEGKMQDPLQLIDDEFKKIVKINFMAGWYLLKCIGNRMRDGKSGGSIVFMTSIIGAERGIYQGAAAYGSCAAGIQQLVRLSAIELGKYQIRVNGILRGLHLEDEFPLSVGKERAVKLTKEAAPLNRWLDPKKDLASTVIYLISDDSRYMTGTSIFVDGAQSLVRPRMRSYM
Protocol: as §1, §2, §3, §4

[5] = system: Prunus dulcis (almond) benzaldehyde synthase (PdBS), recombinant heterodimer PdBSα (SEQ ID NO: 6) / PdBSβ (SEQ ID NO: 9), wild type, MBP-tagged; assay: Kinetic parameters of recombinant PdBS (BS activity assay, HPLC; benzoyl-CoA + NADPH to benzaldehyde); format: biochemical; conditions: measured at 4 mM NADPH
Protocol: as §1, §2, §3
Quantitation was achieved by using standard curve generated from authentic standard and product verification was performed by GC-MS. Namely, crude protein extracts were obtained by extraction of petunia petal tissue with buffer A (3:1 [v/w] buffer/tissue). After centrifugation of slurry at 15,000 g for 20 minutes, the supernatant was desalted with Econo-Pac 10DG Columns (Bio-Rad Laboratories, Inc., Hercules, CA) according to the manufacturer's protocol and 20 μL of desalted protein was used in BS activity assays. The reaction was performed for 30 minutes at 28° C. and the product was extracted with 200 μL DCM containing 1 μg naphthalene (internal standard). After centrifugation at 15,000 g for 20 minutes, 2 μL of the bottom DCM phase was injected in GC-MS. […]

[6] = assuming one catalytic center per heterodimer of BS

Compound	reduction of emission in pds-bsα-bsβ flowers relative to pds control [1] [%]	benzaldehyde formation by crude extracts [2]	also measured
O=Cc1ccccc1 [Benzaldehyde (D5, 111), Benzaldehyde]	68.3	–	–
OCc1ccccc1 [Benzylalcohol (D5, 113), Benzylalcohol]	62.9	–	–
NC(=O)c1ccc[n+]([C@@H]2O[C@H](COP(=O)([O-])OP(=O)(O)OC[C@H]3O[C@@H](n4cnc5c(N)ncnc54)[C@H](OP(=O)(O)O)[C@@H]3O)[C@@H](O)[C@H]2O)c1 [NADP^+]	–	No benzaldehyde was formed	–
NC(=O)c1ccc[n+]([C@@H]2O[C@H](COP(=O)([O-])OP(=O)(O)OC[C@H]3O[C@@H](n4cnc5c(N)ncnc54)[C@H](O)[C@@H]3O)[C@@H](O)[C@H]2O)c1 [NAD^+]	–	No benzaldehyde was formed	–
O=CCc1ccccc1 [Phenylacetaldehyde (D7 + D8, 97 + 98), Phenylacetaldehyde]	41.2	–	–
O=C(O)c1ccccc1 [benzoic acid]	–	No benzaldehyde was formed	–
CC(C)(COP(=O)(O)OP(=O)(O)OC[C@H]1O[C@@H](n2cnc3c(N)ncnc32)[C@H](O)[C@@H]1OP(=O)(O)O)[C@@H](O)C(=O)NCCC(=O)NCCSC(=O)c1ccccc1 [benzoyl-CoA]	–	–	kcat (benzoyl-CoA) [3, 6]: 9.39 ± 0.40 s⁻¹; Vmax (benzoyl-CoA) ([3]; pH 6.5, 28° C.): 63.5 ± 2.7 nKat/mg; Vmax (benzoyl-CoA) [4]: 13.2 ± 3.0 nKat/mg; kcat (benzoyl-CoA) [5, 6]: 5.26 ± 0.20 s⁻¹; Vmax (benzoyl-CoA) ([5]; pH 6.5, 28° C.): 35.4 ± 1.3 nKat/mg; Km ([5]; read-out: Km for benzoyl-CoA, apparent, pH 6.5, 28° C.): 629 ± 67.7 µM
O=C(OCc1ccccc1)c1ccccc1 [benzylbenzoate]	35.6	–	–
O=C(O)C=Cc1ccccc1 [cinnamic acid]	–	No benzaldehyde was formed	–
nicotinamide adenine dinucleotide phosphate [NADPH]	–	Efficient conversion of benzoyl-CoA to benzaldehyde	–
